Laboratory results reported in paper PMC4171606, “A novel copper(I) complex induces ER-stress-mediated apoptosis and sensitizes B-acute lymphoblastic leukemia cells to chemotherapeutic agents” (Oncotarget, 2014).

Assays:
Assay type in all cases: cell-based, human
[1] = system: Blast cells from B-ALL patients; assay: MTT growth inhibition on primary cultures, 24 h; details: B-acute lymphoblastic leukemia patients primary cultures
Experimental: (§1) CP growth inhibitory activity was measured on primary cultures derived from pediatric patients affected by B-acute lymphoblastic leukemia. […] In particular, in resting and in PHA-stimulated PBMC, and in CD19^+ cells GI50 was higher than 10 μM confirming that CP preferentially affects leukemia cells.
FIGURE 6 CP effects on B-ALL primary cultures (A) Blast cells from six B-ALL patients were incubated for 24 h with different concentrations of CP. For the sake of comparison CD19^+ cells from peripheral blood of healthy donors, and PBMC were also incubated with CP in the presence or absence of PHA. Cell viability were assayed by MTT analysis. Data are represented as mean ± S.E.M of four independent experiments. […] Cell viability was evaluated on the whole population by flow cytometry after staining the cells with Annexin-V-FITC and PI. are represented as mean ± S.E.M of 3 independent experiments. […]
The human leukemia cell lines RS 4;11, SEM, REH, RCH-ACV, MHH-CALL2, Jurkat, CCRF-CEM, HSB2, HL-60, K562, THP-1, MV4;11 were purchased from the American Type Culture Collection. […] The cytotoxic activity of CP was determined using a standard 3-[4,5-dimethylthiazol-2-yl]-2,5-diphenyltetrazodium bromide (MTT) based colorimetric assay (Sigma-Aldrich, Italy). […] After different times, cell survival was determined by the addition of an MTT solution as previously described. […]

GRP78 = assay: Western blot, ER stress marker GRP78
Experimental: Moreover we found an increase in CHOP expression starting from 3 h of CP treatment. […] Whilst GRP78, due to its chaperon activity, exerts a protective function, CHOP promotes ER-stress cell death, thus the rapid activation of pro-death signals and the late activation of pro-survival chaperone GRP78 could explain the commitment toward apoptosis induced by CP. Moreover, in unresolvable stress conditions, an increased CHOP expression has been correlated to the induction of the expression of many apoptotic genes and to the down-regulation prosurvival genes, such as Bcl-2 [30].
FIGURE 4 CP induces ER stress Western Blot analysis showing expression of GRP78 and CHOP in SEM (A) and in RS4;11 (B) cells. Cells were treated with CP 2.5 μM for the indicated times. (C) PCR analysis showing the induction of XBP1 splicing in SEM and RS4;11 cells. Cells were treated with CP (2.5 μM) or Tunicamycin (2 μg/ml) as positive control for 12 h.
Cells were treated with CP and, after different times, were collected, centrifuged and washed with ice cold phosphate-buffered saline (PBS). The pellet was then resuspended in lysis buffer as described. The protein concentration in the supernatant was determined using the BCA protein assay (Pierce, Italy). […]

[2] = system: CCRF-CEM (T-acute lymphoblastic leukemia); assay: MTT growth inhibition, 72 h; details: mean ± SE
Experimental: (§2) [Cu(thp)4][PF6] (CP) was evaluated for its growth inhibition activity on a panel of twelve different human leukemia cell lines (five B-acute lymphoblastic leukemia, three T-acute lymphoblastic leukemia, three acute myeloid leukemia and one chronic myeloid leukemia). Cells were treated for 72 h with CP and cell viability was evaluated by MTT test. […] This abnormal high expression of proteasomal proteins and mRNA seem to be correlated to the hyperproliferation of these cancer cells and to the sensitivity towards proteasome inhibitors.
(§3) The human leukemia cell lines RS 4;11, SEM, REH, RCH-ACV, MHH-CALL2, Jurkat, CCRF-CEM, HSB2, HL-60, K562, THP-1, MV4;11 were purchased from the American Type Culture Collection. Cells were cultured in RPMI 1640 (Life Technologies, Italy) supplemented with 10% fetal bovine serum (FBS), glutamine (2 mM; Life Technologies, Italy), penicillin (100 U/ml; Life Technologies, Italy) and streptomycin (100 μg/ml; Life Technologies, Italy), and maintained at 37°C in a humidified atmosphere with 5% CO2. The cytotoxic activity of CP was determined using a standard 3-[4,5-dimethylthiazol-2-yl]-2,5-diphenyltetrazodium bromide (MTT) based colorimetric assay (Sigma-Aldrich, Italy). Briefly, cells were seeded at a density of 2×10^4 cells/well in 96-well microtiter plates. After 24 h, cells were exposed to the test compound. After different times, cell survival was determined by the addition of an MTT solution as previously described.

[3] = system: Jurkat (T-acute lymphoblastic leukemia); assay: MTT growth inhibition, 72 h; details: mean ± SE
Experimental: as §2, §3

[4] = system: THP-1 (acute myeloid leukemia); assay: MTT growth inhibition, 72 h; details: THP-1, 72 h, mean ± SE
Experimental: as §2, §3

[5] = system: HL60 (promyelocytic leulemia); assay: MTT growth inhibition, 72 h; details: HL60, 72 h, mean ± SE
Experimental: as §2, §3

[6] = system: MV4;11 (acute myeloid leukemia); assay: MTT growth inhibition, 72 h; details: MV4;11, 72 h, mean ± SE
Experimental: as §2, §3

[7] = system: Bone marrow cells from healthy donors; assay: Annexin-V-FITC/PI viability by flow cytometry, 24 h; details: CP 2.5 μM and 5 μM
Experimental: as §1
FIGURE 6 CP effects on B-ALL primary cultures (A) Blast cells from six B-ALL patients were incubated for 24 h with different concentrations of CP. For the sake of comparison CD19^+ cells from peripheral blood of healthy donors, and PBMC were also incubated with CP in the presence or absence of PHA. Cell viability were assayed by MTT analysis. Data are represented as mean ± S.E.M of four independent experiments. (B) Bone marrow cells from healthy donors were treated for 24 h with CP (2.5 μM and 5 μM). Cell viability was evaluated on the whole population by flow cytometry after staining the cells with Annexin-V-FITC and PI. are represented as mean ± S.E.M of 3 independent experiments. […]
Surface exposure of PS by apoptotic cells was measured by flow cytometry with a Coulter Cytomics FC500 (Beckmann Coulter, USA) by adding Annexin V-FITC and propidium iodide (PI) to cells according to the manufacturer's instructions (Annexin-V Fluos, Roche Diagnostic, Italy).

Question: `F[P-](F)(F)(F)(F)F.OCP(CO)CO.OCP(CO)CO.OCP(CO)CO.OCP(CO)CO.[Cu+]` [CP, [Cu(thp)4][PF6]] was tested. Which GI50 [1] did it give?
Answer: Its GI50 is 2.3 µM.

Question: And the “time of remarkable increase of GRP78 expression” value (GRP78; RS4;11, CP 2.5 μM)?
Answer: The value was 12 h.

Question: What about the “time of remarkable increase of GRP78 expression” value (GRP78; SEM, CP 2.5 μM) of the same molecule?
Answer: The value was 6 h.

Question: What about the GI50 [2] of the same molecule?
Answer: The GI50 was 3.9 ± 0.22 µM.

Question: What about the GI50 [3] of the same molecule?
Answer: Its GI50 is 16.7 ± 2.6 µM.

Question: And the GI50 [4]?
Answer: Its GI50 is 17.2 ± 1 µM.

Question: What about the GI50 [5] of the same molecule?
Answer: The GI50 was 12.1 ± 2.8 µM.

Question: And the GI50 [6]?
Answer: Its GI50 is 1.2 ± 0.2 µM.

Question: What about the “viability of lymphocyte and monocyte populations” value [7] of the same molecule?
Answer: The value was “did not affect the viability”.
